# In patent publication EP2426213A1, “Marker for sunitnib resistance formation” (Max-Planck-Gesellschaft zur Förderung der Wissenschaften …, priority 2010, dated 2012):
# What was measured:
# Assay type in all cases: cell-based, Human
# CAKI1 = test: Propidium iodide (PI) apoptosis assay, LD50 after 72 h
# Procedure: (§1) Human kidney carcinoma and melanoma cell lines A498, A704, CAKI1, CAKI2, WM115, WM266-4 and C8161 were provided by M. Herlyn (Wistar Institute, Philadephia) and R. Gillies (Arizona Cancer Center, Phoenix) or purchased from the American Tissue Culture Collection. CAKI1, CAKI2 and C8161 cells were cultured in Dulbecco's modified Eagle's medium (DMEM; Gibco Life Technologies Inc.), supplemented with 10 % fetal calf serum (FCS), 2 mM glutamine, and 1 % nonessential amino acids. A498, A704 and WM115 cells were cultured in Minimum Essential Medium (MEM; Gibco Life Technologies Inc.) supplemented with 10 % FCS, 2 mM glutamine, and 1 % (v/v) nonessential amino acids. WM266-4 cells were cultured in RPMI medium (Gibco Life Technologies Inc.), supplemented with 10 % FCS and 2 mM glutamine.
# (§2) The cells were treated with Sunitinb concentrations between 2.5 µM and 20 µM for 72 h and apoptosis was determined according to Nicoletti's procedure (Riccardi and Nicoletti 2006). BD CellQuest Pro software (Becton Dickinson) for subG1 peak detection was used to determine the extent of the apoptotic cell formation. Statistical evaluation of the half maximal lethal dose-(LD50) values was assessed by using SigmaPlot (Systat Software, Inc., version 10).
# A498 [1] = test: as above
# Procedure: as §1, §2
# WM266-4^NDes [2] = test: Apoptosis LD50 in Sorafenib desensitized cell line
# Procedure: as §2
# (§3) To determine the drug specificity of the selection process, we also established Sorafenib selected polyclonal cell populations using the same conditions.
# C8161^NDes [3] = test: Apoptosis LD50 in Sorafenib desensitized cell line
# Procedure: as §2, §3
# WM115^NDes [4] = test: Apoptosis LD50 in Sorafenib desensitized cell line
# Procedure: as §2, §3
# WM115^SDes [5] = test: Increased Sunitinib-induced apoptosis (AdA) after siRNA knock-down, PI assay; conditions: RSK4 reduction by siRNA vs control siRNA, Sunitinib 72 h
# Procedure: (§4) The cells were seeded with equal numbers in 6-Well plates and transfected with 40 pmol siRNA (PRKX (AMBION, cat. no.: s224410, s224411, s11195), TTBK2 (AMBION, cat. no.: s44812, s44813, s44814), RSK4/RPS6KA6 (AMBION, cat. no.: s223751, s223752, s223753) and 5 µl lipofectamine RNAiMAX (Invitrogen) following the manufacturers' protocols. To determine the knock-down efficiency, semi-quantitative RT-PCR was performed (Primer list, see table 1). Table 1: Primer used for RT-PCR
# (§5) Apoptotic cell formation was monitored according to Nicoletti's procedure.
# A704^NDes = test: Apoptosis LD50 in Sorafenib selected cell line
# Procedure: as §2, §3
# parental A498 cells = test: Boyden Chamber migration assay after siRNA knock-down and Sunitinib treatment; conditions: Sunitinib 12 h
# Procedure: as §4, §5
# (§6) Then, cells were seeded onto a membrane with 8 µm pores of a modified Boyden chamber (Schubert and Weiss) containing 500 µL serum-free medium. 10 % FCS served as chemo-attractant.
# A498^SDes cells = test: as above; conditions: Sunitinib 12 h
# Procedure: as §4, §5, §6
# WM266-4 [6] = test: Increased Sunitinib-induced apoptosis (AdA) after siRNA knock-down, PI assay; conditions: Sunitinib 72 h
# Procedure: as §4, §5
# (§7) To analyze the increased Sunitinib-induced apoptosis (AdA) upon gene-expression reduction compared to the control siRNA, apoptosis was determined using PI-Assays after 72 h. Gene knock-downs ranged between 50% and 90%, as estimated by scanning densitometry (Fig. 4A). […] Like for PRKX and TTBK2, the […] in gene-expression strongly correlated with the degree of desensitization.
# WM115 [7] = test: as above; conditions: Sunitinib 72 h
# Procedure: as §4, §5, §7
# WM266-4^SDes [8] = test: as above; conditions: Sunitinib 72 h
# Procedure: as §4, §5, §7
# A498 [9] = test: as above; conditions: Sunitinib 72 h
# Procedure: as §4, §5, §7
# C8161 [10] = test: as above; conditions: Sunitinib 72 h
# Procedure: as §4, §5, §7
# WM266-4^NDes [11] = test: as above; conditions: Sunitinib 72 h
# Procedure: as §4, §5, §7
# A498^SDes [12] = test: as above; conditions: Sunitinib 72 h
# Procedure: as §4, §5, §7
# C8161^NDes [13] = test: as above; conditions: C8161NDes, Sunitinib 72 h
# Procedure: as §4, §5, §7
# WM115^NDes [14] = test: as above; conditions: Sunitinib 72 h
# Procedure: as §4, §5, §7
# C8161^Sdes [15] = test: as above; conditions: Sunitinib 72 h
# Procedure: as §4, §5, §7
# WM266-4 [16] = test: Propidium iodide (PI) apoptosis assay, LD50 after 72 h; conditions: WM266-4 parental; Sunitinib 72 h; apoptosis (subG1)
# Procedure: as §1, §2
# WM115 [17] = test: as above; conditions: WM115 parental; Sunitinib 72 h; apoptosis (subG1)
# Procedure: as §1, §2
# A704 = test: as above; conditions: A704 parental, Sunitinib 2.5-20 µM, apoptosis (subG1)
# Procedure: as §1, §2
# C8161 [18] = test: as above; conditions: C8161 parental; Sunitinib 72 h; apoptosis (subG1)
# Procedure: as §1, §2
# WM115^SDes [19] = test: Apoptosis LD50 in Sunitinib desensitized cell line; conditions: WM115^SDes compared to parental cell line; 72 h
# Procedure: as §2
# A704^SDes = test: Apoptosis LD50 in Sunitinib desensitized cell line; conditions: A704^SDes compared to parental cell line; 72 h
# Procedure: as §2
# WM266-4^SDes [20] = test: Apoptosis LD50 in Sunitinib desensitized cell line; conditions: WM266-4^SDes compared to parental cell line; 72 h
# Procedure: as §2
# A498^SDes [21] = test: Apoptosis LD50 in Sunitinib desensitized cell line; conditions: A498^SDes compared to parental cell line; 72 h
# Procedure: as §2
# C8161^Sdes [22] = test: Apoptosis LD50 in Sunitinib desensitized cell line; conditions: C8161^Sdes compared to parental cell line; 72 h
# Procedure: as §2
# [23] = PRKX reduction by siRNA vs control siRNA
# [24] = RSK4 reduction by siRNA vs control siRNA
# [25] = TTBK2 reduction by siRNA vs control siRNA
compound,measurement,setting,value
CNC(=O)c1cc(Oc2ccc(NC(=O)Nc3ccc(Cl)c(C(F)(F)F)c3)cc2)ccn1 [Sorafenib],Sorafenib sensitivity (apoptosis),CAKI1; parental CAKI1,insensitivity
same,Sorafenib sensitivity (apoptosis),A498 [1]; parental A498,insensitivity
same,decreased sensitivities against Sorafenib compared to the parental cell lines,"WM266-4^NDes [2]; WM266-4^NDes, Sorafenib LD50",130%
same,decreased sensitivities against Sorafenib compared to the parental cell lines,"C8161^NDes [3]; C8161^NDes, Sorafenib LD50",249%
same,decreased sensitivities against Sorafenib compared to the parental cell lines,"WM115^NDes [4]; WM115^NDes, Sorafenib LD50",197%
CCN(CC)CCNC(=O)c1c(C)[nH]c(/C=C2\C(=O)Nc3ccc(F)cc32)c1C [Sunitinib],increased Sunitinib-induced apoptosis (AdA),WM115^SDes [5],14.1 ± 3.2%
same,Sunitinib LD50-value,A704^NDes; A704^NDes (Sorafenib selected),9.0 ± 2.5 µM
same,increased Sunitinib LD50-value,A704^NDes; A704^NDes in comparison to the parental cell line,419%
same,inhibition of migration compared to the scrambled siRNA control,parental A498 cells; PRKX reduction by siRNA,64.4 ± 11.1%
same,increase in Sunitinib inhibition of migration,parental A498 cells; RSK4 reduction by siRNA,27.3 ± 2.7%
same,increase in Sunitinib inhibition of migration,parental A498 cells; TTBK2 reduction by siRNA,37.1 ± 1.0%
same,increased Sunitinib inhibitory effect (migration),A498^SDes cells; PRKX reduction by siRNA,76.4 ± 4.1%
same,increased Sunitinib anti-migratory effect,A498^SDes cells; RSK4 reduction by siRNA,8.6 ± 3.1%
same,increased Sunitinib-induced apoptosis (AdA),WM266-4 [6]; [23],22.4 ± 6.7%
same,increased Sunitinib-induced apoptosis (AdA),WM266-4 [6]; [24],7.1 ± 2.0%
same,increased Sunitinib-induced apoptosis (AdA),WM266-4 [6]; [25],5.1 ± 2.0%
same,increased Sunitinib-induced apoptosis (AdA),WM115 [7]; [23],3.2 ± 0.4%
same,increased Sunitinib-induced apoptosis (AdA),WM115 [7]; [24],4.8 ± 2.3%
same,increased Sunitinib-induced apoptosis (AdA),WM115 [7]; [25],4.8 ± 1.5%
same,increased Sunitinib-induced apoptosis (AdA),"WM266-4^SDes [8]; PRKX reduction by siRNA vs control siRNA, WM266-4SDes",34.1 ± 4.9%
same,increased Sunitinib-induced apoptosis (AdA),"WM266-4^SDes [8]; RSK4 reduction by siRNA vs control siRNA, WM266-4^SDes",20.2 ± 5.7%
same,increased Sunitinib-induced apoptosis (AdA),"WM266-4^SDes [8]; TTBK2 reduction by siRNA vs control siRNA, WM266-4SDes",16.8 ± 7.7%
same,increased Sunitinib-induced apoptosis (AdA),A498 [9]; [23],6.5 ± 3.2%
same,increased Sunitinib-induced apoptosis (AdA),A498 [9]; [24],6.5 ± 3.2%
same,increased Sunitinib-induced apoptosis (AdA),A498 [9]; [25],7.1 ± 3.1%
same,increased Sunitinib-induced apoptosis (AdA),C8161 [10]; [23],19.4 ± 2.4%
same,increased Sunitinib-induced apoptosis (AdA),C8161 [10]; [24],12.5 ± 3.6%
same,increased Sunitinib-induced apoptosis (AdA),C8161 [10]; [25],7.3 ± 4.8%
same,increased Sunitinib-induced apoptosis (AdA),WM266-4^NDes [11]; [23],23.0 ± 5.4%
same,increased Sunitinib-induced apoptosis (AdA),WM266-4^NDes [11]; [24],5.3 ± 5.2%
same,increased Sunitinib-induced apoptosis (AdA),WM266-4^NDes [11]; [25],12.7 ± 2.5%
same,increased Sunitinib-induced apoptosis (AdA),"A498^SDes [12]; PRKX reduction by siRNA vs control siRNA, A498SDes",14.7 ± 4.4%
same,increased Sunitinib-induced apoptosis (AdA),"A498^SDes [12]; RSK4 reduction by siRNA vs control siRNA, A498^SDes",14.7 ± 4.4%
same,increased Sunitinib-induced apoptosis (AdA),"A498^SDes [12]; TTBK2 reduction by siRNA vs control siRNA, A498^SDes",13.6 ± 0.4%
same,increased Sunitinib-induced apoptosis (AdA),C8161^NDes [13]; [23],18.1 ± 8.8%
same,increased Sunitinib-induced apoptosis (AdA),C8161^NDes [13]; [24],6.0 ± 2.1%
same,increased Sunitinib-induced apoptosis (AdA),C8161^NDes [13]; [25],-2.2 ± 6.8%
same,increased Sunitinib-induced apoptosis (AdA),"WM115^NDes [14]; PRKX reduction by siRNA vs control siRNA, WM115NDes",3.9 ± 4.8%
same,increased Sunitinib-induced apoptosis (AdA),"WM115^NDes [14]; RSK4 reduction by siRNA vs control siRNA, WM115^NDes",5.6 ± 3.8%
same,increased Sunitinib-induced apoptosis (AdA),"WM115^NDes [14]; TTBK2 reduction by siRNA vs control siRNA, WM115NDes",11.7 ± 4.4%
same,increased Sunitinib-induced apoptosis (AdA),"C8161^Sdes [15]; PRKX reduction by siRNA vs control siRNA, C8161SDes",35.8 ± 9.9%
same,increased Sunitinib-induced apoptosis (AdA),"C8161^Sdes [15]; RSK4 reduction by siRNA vs control siRNA, C8161SDes",11.9 ± 4.8%
same,increased Sunitinib-induced apoptosis (AdA),"C8161^Sdes [15]; TTBK2 reduction by siRNA vs control siRNA, C8161^SDes",20.3 ± 8.1%
same,LD50-values,WM266-4 [16],6.4 ± 1.3 µM
same,LD50-values,WM115 [17],3.6 ± 0.9 µM
same,LD50-values,A704,2.2 ± 0.4 µM
same,LD50-values,"CAKI1; CAKI1 parental, Sunitinib 72 h, apoptosis (subG1)",16.6 ± 1.5 µM
same,LD50-values,"A498 [1]; A498 parental, Sunitinib 72 h, apoptosis (subG1)",12.4 ± 0.4 µM
same,LD50-values,C8161 [18],15.5 ± 0.7 µM
same,increase of the Sunitinib LD50-values,WM266-4^NDes [2]; WM266-4^Ndes compared to parental,168%
same,decrease in Sunitinib sensitivity,C8161^NDes [3]; C8161^Ndes compared to parental,77%
same,increase of the Sunitinib LD50-values,WM115^NDes [4]; WM115^Ndes compared to parental,249%
same,increase of the LD50-values,WM115^SDes [19],301%
same,increase of the LD50-values,A704^SDes,344%
same,increase of the LD50-values,WM266-4^SDes [20],174%
same,increase of the LD50-values,A498^SDes [21],122%
same,increase of the LD50-values,C8161^Sdes [22],112%
